Measurements: US20250289827A1, “MORPHIC FORMS OF A MUTANT BRAF DEGRADER AND METHODS OF MANUFACTURE THEREOF” (C4 THERAPEUTICS, INC., priority 2022, published 2025)
Converted amounts (≈) assume the structure as drawn. Like-named read-outs stand apart in the source and are kept apart here.

What was measured:
[1] = Approximate solubility at 25° C. and 50° C. (visual); assay type: physicochemical
Experimental: About 5 mg of Compound 1 Form A was weighed to a 2 mL glass vial. 20 μL aliquots of each solvent were added to dissolve the drug substance at 25° C. About 10 mg of Compound 1 Form A was weighed to a 2 mL glass vial. 20 μL aliquots of each solvent were added to dissolve the drug substance at 50° C. Vortex and sonication were applied to assist dissolution. Maximum volume of each solvent added was 1 mL. Approximate solubility was determined by visual observation.
About 5 mg of Compound 1 Form B was weighed to a 2 mL glass vial. 20 μL aliquots of each solvent were added to dissolve the drug substance at 25° C. About 10 mg of Compound 1 Form B was weighed to a 2 mL glass vial. […] aliquots of each solvent were added to dissolve the drug substance at 50° C. Vortex and sonication were applied to assist dissolution. Maximum volume of each solvent added is 1 mL. Approximate solubility was determined by visual observation.

[2] = system: BRAF V600E mutant A375-luciferase intracranial model; assay: Efficacy in A375-luciferase intracranial model; details: 35 mg/kg PO QD; vehicle median survival 18 days
Experimental: For the efficacy study, agents were tested in A375 human melanoma cancer cell derived xenografts (CDX). […] The A375 tumor cells were maintained in vitro in DMEM medium supplemented with 10% fetal bovine serum and 1% Penicillin-Streptomycin at 37° C. in an atmosphere of 5% CO2 in air. The tumor cells were routinely subcultured twice weekly. The cells growing in an exponential growth phase were harvested and counted for tumor inoculation.
For this CNS study, A375 cells with a luciferase tag for tracking tumor cell signal, were injected intracranially into 6-8 week old female BALB/c nude mice. […] The mice were anaesthetized, restrained, and sterilized prior to surgery. […] A 2 mm hole was created to the right of the anterior fontanel and 0.5 mm above the coronal on the skull with a cranial drill. Cell suspensions in 20% Matrigel were mixed and aspirated into the injector carefully to avoid bubbles and wiped to avoid extracranial tumorigenesis. The needle was inserted vertically into the cranial hole and the cell mixture was slowly injected for two minutes and held for another minute to decrease the drainage of the cell suspension. The wound was closed, and a subcutaneous injection of 5 mg/kg Meloxicam was given to relieve the pain and continued for three days. The mice were monitored closely until they woke up after the surgery. After inoculation, the animals were checked daily for morbidity and mortality.
The administration of the test agents began three days after inoculation. […] Measurements for the presence of the A375 luciferase signal within the CNS were done with IVIS Lumina III machine. Images were collected twice weekly to follow the growth of the models. The tumor-bearing mice were weighed and intraperitoneally administered luciferin (Perkin Elmer Inc-122799) at a dosage of 150 mg/kg. After ten minutes, mice were pre-anesthetized with the mixture gas of oxygen and isoflurane. The bioluminescence value at fifteen minutes post luciferin injection was recorded as the final value and plotted. The endpoint for individual mice was reached when the mouse body weight decreased by 20% when compared to their starting weight.
The luciferase signal for the mice removed from study were not carried forward, so a sudden drop in luciferase signal over time is due to mice with a heavy tumor burden being terminated and their high luciferase signal not being carried forward.

[3] = system: A2058 human melanoma xenografts; assay: Efficacy and body weight in A2058 xenografts (Example 39); assay type: in vivo
Experimental: Compound 1, encorafenib and dabrafenib were administered to BALB/c nude mice bearing A2058 xenografts orally for 28 days. Compound 1 was dosed twice per day (BID) and dosed at 10 mg/kg from day 0. Encorafenib and dabrafenib were dosed daily (QD) from day 1. Encorafenib was dosed at 35 mg/kg. Dabrafenib was dosed at 100 mg/kg.
Each mouse was inoculated subcutaneously at the right flank with A2058 cells (5×106) in 0.2 mL of PBS supplemented with Matrigel (PBS:Matrigel=1:1) for tumor development. Animals were grouped for efficacy study when the average tumor volume reached 130 mm^3 on day 7 after tumor inoculation and 412 mm^3 for PKPD study on day 14.
At the time of routine monitoring, the animals were checked daily for any effects of tumor growth and treatments on normal behavior such as mobility, food and water consumption (by looking only), body weight gain/loss (body weights were measured twice weekly), eye/hair matting and any other abnormal effect as stated in the protocol. Death and observed clinical signs were recorded on the basis of the numbers of animals within each subset.
Prior to the onset of drug treatment, mice were measured for tumor size in two dimensions using a caliper, and the tumor volume (mm^3) was calculated using formula V=0.5 a×b^2 where a and b are the long and short diameters of the tumor in mm, respectively. Mice were randomized into different treatment groups based on the tumor volume.
The major endpoint was to see if the tumor growth could be delayed or mice could be cured. The tumor size was then used for calculations of T/C value. The T/C value (in percent) is an indication of antitumor effectiveness; T and C are the mean volumes of the treated and control groups, respectively on specified day.
Tumor growth inhibition (TGI) was calculated for each group using the formula: TGI (%) 20=[1−(Ti−T0)/(Ci−C0)]×100; Ti is the average tumor volume of a treatment group on a given day, TO is the average tumor volume of the treatment group on the day of treatment start, Ci is the average tumor volume of the vehicle control group on the same day with Ti, and C0 is the average tumor volume of the vehicle group on the day of treatment start.
A one-way ANOVA followed by Dunnett's multiple comparison test was performed to compare tumor volume among vehicle group and treatment groups. All data were analyzed using GraphPad Prism, * indicates p<0.01, **** indicates p<0.0001 and ns indicates p>0.05.

[4] = PG-D24, Compound 1 10 mg/kg BID, encorafenib 35 mg/kg QD, dabrafenib 100 mg/kg QD

Structure (SMILES): CCN(C)S(=O)(=O)Nc1ccc(F)c(Oc2ccc3ncn([C@H]4COC5(CCN(C(=O)CC6(O)CCN(c7cc8c(cc7F)c(N7CCC(=O)NC7=O)nn8C)CC6)CC5)C4)c(=O)c3c2)c1C#N [Compound 1 Form A]
- solubility ([1]; 1,4-Dioxane, 25° C., listed as Form A): >250 mg/mL
- solubility ([1]; 1,4-Dioxane, 50° C., listed as Form A): >500 mg/mL
- solubility ([1]; 2-MeTHF, 25 °C, organic solvent or mixture, thermodynamic from solid, 2-MeTHF, 25° C., read-out: Solubility): 5 to 7 mg/mL (≈ 5.22 to 7.31 mM)
- solubility ([1]; 2-MeTHF, 50 °C, organic solvent or mixture, thermodynamic from solid, 2-MeTHF, 50° C., read-out: Solubility): < 10 mg/mL
- solubility ([1]; Acetone, 25° C., listed as Form A): 13 to 17 mg/mL
- solubility ([1]; Acetone, 50° C., listed as Form A): 25 to 29 mg/mL
- solubility ([1]; Acetonitrile, 25° C., listed as Form A): 13 to 17 mg/mL
- solubility ([1]; Acetonitrile, 50° C., listed as Form A): 25 to 33 mg/mL
- solubility ([1]; DCM, 25° C., listed as Form A): >250 mg/mL
- solubility ([1]; DMSO, 25 °C, organic solvent or mixture, thermodynamic from solid, DMSO, 25° C., read-out: Solubility): ≥ 250 mg/mL
- solubility ([1]; DMSO, 50 °C, organic solvent or mixture, thermodynamic from solid, DMSO, 50° C., read-out: Solubility): > 500 mg/mL
- solubility ([1]; MTBE, 25 °C, organic solvent or mixture, thermodynamic from solid, MTBE, 25° C., read-out: Solubility): < 5 mg/mL
- solubility ([1]; MTBE, 50 °C, organic solvent or mixture, thermodynamic from solid, MTBE, 50° C., read-out: Solubility): < 10 mg/mL
- solubility ([1]; THF, 25° C., listed as Form A): >250 mg/mL
- solubility ([1]; THF, 50° C., listed as Form A): >500 mg/mL
- solubility ([1]; ethanol, 25 °C, organic solvent or mixture, thermodynamic from solid, Ethanol, 25° C., read-out: Solubility): < 5 mg/mL
- solubility ([1]; ethanol, 50 °C, organic solvent or mixture, thermodynamic from solid, Ethanol, 50° C., read-out: Solubility): < 10 mg/mL
- solubility ([1]; ethyl acetate, 25 °C, organic solvent or mixture, thermodynamic from solid, Ethyl acetate, 25° C., read-out: Solubility): < 5 mg/mL
- solubility ([1]; ethyl acetate, 50 °C, organic solvent or mixture, thermodynamic from solid, Ethyl acetate, 50° C., read-out: Solubility): < 10 mg/mL
- solubility ([1]; heptane, 25 °C, organic solvent or mixture, thermodynamic from solid, Heptane, 25° C., read-out: Solubility): < 5 mg/mL
- solubility ([1]; heptane, 50 °C, organic solvent or mixture, thermodynamic from solid, Heptane, 50° C., read-out: Solubility): < 10 mg/mL
- solubility ([1]; isopropanol, 25 °C, organic solvent or mixture, thermodynamic from solid, Isopropanol, 25° C., read-out: Solubility): < 5 mg/mL
- solubility ([1]; isopropanol, 50 °C, organic solvent or mixture, thermodynamic from solid, Isopropanol, 50° C., read-out: Solubility): < 10 mg/mL
- solubility ([1]; isopropyl acetate, 25 °C, organic solvent or mixture, thermodynamic from solid, Isopropyl acetate, 25° C., read-out: Solubility): < 5 mg/mL
- solubility ([1]; isopropyl acetate, 50 °C, organic solvent or mixture, thermodynamic from solid, Isopropyl acetate, 50° C., read-out: Solubility): < 10 mg/mL
- solubility ([1]; methanol, 25 °C, organic solvent or mixture, thermodynamic from solid, Methanol, 25° C., read-out: Solubility): ~3 mg/mL (≈ 3.13 mM)
- solubility ([1]; methanol, 50 °C, organic solvent or mixture, thermodynamic from solid, Methanol, 50° C., read-out: Solubility): 5 to 10 mg/mL (≈ 5.22 to 10.4 mM)
- solubility ([1]; methyl ethyl ketone, 25 °C, organic solvent or mixture, thermodynamic from solid, Methyl ethyl ketone, 25° C., read-out: Solubility): 14 to 17 mg/mL (≈ 14.6 to 17.7 mM)
- solubility ([1]; methyl ethyl ketone, 50 °C, organic solvent or mixture, thermodynamic from solid, Methyl ethyl ketone, 50° C., read-out: Solubility): 25 to 33 mg/mL (≈ 26.1 to 34.4 mM)
- solubility ([1]; toluene, 25 °C, organic solvent or mixture, thermodynamic from solid, Toluene, 25° C., read-out: Solubility): < 5 mg/mL
- solubility ([1]; toluene, 50 °C, organic solvent or mixture, thermodynamic from solid, Toluene, 50° C., read-out: Solubility): < 10 mg/mL
- solubility ([1]; water, 25 °C, water, thermodynamic from solid, Water, 25° C., read-out: Solubility): < 5 mg/mL
- solubility ([1]; water, 50 °C, water, thermodynamic from solid, Water, 50° C., read-out: Solubility): < 10 mg/mL

Structure (SMILES): CCN(C)S(=O)(=O)Nc1ccc(F)c(Oc2ccc3ncn([C@H]4COC5(CCN(C(=O)CC6(O)CCN(c7cc8c(cc7F)c(N7CCC(=O)NC7=O)nn8C)CC6)CC5)C4)c(=O)c3c2)c1C#N [Compound 1 Form B]
- solubility ([1]; 1,4-Dioxane, 25° C., listed as Form B): 20~25 mg/mL
- solubility ([1]; 1,4-Dioxane, 50° C., listed as Form B): 28~40 mg/mL
- solubility ([1]; 2-MeTHF, 25° C.): <5 mg/mL
- solubility ([1]; 2-MeTHF, 50° C.): <5 mg/mL
- solubility ([1]; Acetone, 25° C., listed as Form B): <5 mg/mL
- solubility ([1]; Acetone, 50° C., listed as Form B): <5 mg/mL
- solubility ([1]; Acetonitrile, 25° C., listed as Form B): <5 mg/mL
- solubility ([1]; Acetonitrile, 50° C., listed as Form B): <5 mg/mL
- solubility ([1]; DCM, 25° C., listed as Form B): 83~125 mg/mL
- solubility ([1]; DMSO, 25° C.): at least 250 mg/mL
- solubility ([1]; DMSO, 25° C., listed as Form B): >250 mg/mL
- solubility ([1]; Ethanol, 50° C.): <5 mg/mL
- solubility ([1]; Heptane, 50° C.): <5 mg/mL
- solubility ([1]; Isopropanol, 50° C.): <5 mg/mL
- solubility ([1]; MTBE, 50° C.): <5 mg/mL
- solubility ([1]; Methanol, 25° C.): <5 mg/mL
- solubility ([1]; Methanol, 50° C.): <5 mg/mL
- solubility ([1]; THF, 25° C., listed as Form B): 10~13 mg/mL
- solubility ([1]; THF, 50° C., listed as Form B): 16~20 mg/mL
- solubility ([1]; Toluene, 50° C.): <5 mg/mL
- solubility ([1]; Water, 50° C.): <5 mg/mL

Structure (SMILES): COC(=O)N[C@@H](C)CNc1nccc(-c2cn(C(C)C)nc2-c2cc(Cl)cc(NS(C)(=O)=O)c2F)n1 [encorafenib]
- Survival (average) [2]: 46 days
- T/C [3, 4]: 77.22%
- TGI [3, 4]: 24.04%
- TV (mean tumor volume) [3, 4]: 1944 mm^3
- TGI ([3]; PG-D24, Compound 1 10 mg/kg p.o. BID, Encorafenib 35 mg/kg p.o. QD, Dabrafenib 100 mg/kg p.o. QD): 24.04%
- Tumor Size on PG-D24 ([3]; PG-D24, Mean ± SEM, Compound 1 10 mg/kg p.o. BID, Encorafenib 35 mg/kg p.o. QD, Dabrafenib 100 mg/kg p.o. QD): 1944 ± 160 mm^3
- Antitumor activity compared with vehicle group ([3]; PG-D24, one-way ANOVA, Dunnett): no significant antitumor activity
- T/C ([3]; PG-D24, treated / control average tumor volume, Compound 1 10 mg/kg p.o. BID, Encorafenib 35 mg/kg p.o. QD, Dabrafenib 100 mg/kg p.o. QD): 77.22%
- TGI ([3]; PG-D28, Compound 1 10 mg/kg p.o. BID, Encorafenib 35 mg/kg p.o. QD, Dabrafenib 100 mg/kg p.o. QD): 19.37%
- Tumor Size on PG-D28 ([3]; PG-D28, Mean ± SEM, Compound 1 10 mg/kg p.o. BID, Encorafenib 35 mg/kg p.o. QD, Dabrafenib 100 mg/kg p.o. QD): 2354 ± 201 mm^3
- T/C ([3]; PG-D28, treated / control average tumor volume, Compound 1 10 mg/kg p.o. BID, Encorafenib 35 mg/kg p.o. QD, Dabrafenib 100 mg/kg p.o. QD): 81.52%
- Tumor Volume Trace over Time ([3]; day 0 (baseline), Mean ± SEM, Compound 1 10 mg/kg p.o. BID × 28 days, Encorafenib 35 mg/kg p.o. QD × 28 days, Dabrafenib 100 mg/kg p.o. QD × 28 days): 130 ± 4 mm^3
- Tumor Volume Trace over Time ([3]; day 3, Mean ± SEM, Compound 1 10 mg/kg p.o. BID, Encorafenib 35 mg/kg p.o. QD, Dabrafenib 100 mg/kg p.o. QD): 189 ± 9 mm^3
- Tumor Volume Trace over Time ([3]; day 7, Mean ± SEM, Compound 1 10 mg/kg p.o. BID, Encorafenib 35 mg/kg p.o. QD, Dabrafenib 100 mg/kg p.o. QD): 302 ± 23 mm^3
- Tumor Volume Trace over Time ([3]; day 10, Mean ± SEM, Compound 1 10 mg/kg p.o. BID, Encorafenib 35 mg/kg p.o. QD, Dabrafenib 100 mg/kg p.o. QD): 477 ± 45 mm^3
- Tumor Volume Trace over Time ([3]; day 14, Mean ± SEM, Compound 1 10 mg/kg p.o. BID, Encorafenib 35 mg/kg p.o. QD, Dabrafenib 100 mg/kg p.o. QD): 756 ± 64 mm^3
- Tumor Volume Trace over Time ([3]; day 17, Mean ± SEM, Compound 1 10 mg/kg p.o. BID, Encorafenib 35 mg/kg p.o. QD, Dabrafenib 100 mg/kg p.o. QD): 1122 ± 120 mm^3
- Tumor Volume Trace over Time ([3]; day 21, Mean ± SEM, Compound 1 10 mg/kg p.o. BID, Encorafenib 35 mg/kg p.o. QD, Dabrafenib 100 mg/kg p.o. QD): 1472 ± 142 mm^3
- Tumor Volume Trace over Time ([3]; day 24, Mean ± SEM, Compound 1 10 mg/kg p.o. BID, Encorafenib 35 mg/kg p.o. QD, Dabrafenib 100 mg/kg p.o. QD): 1944 ± 160 mm^3
- Tumor Volume Trace over Time ([3]; day 28, Mean ± SEM, Compound 1 10 mg/kg p.o. BID, Encorafenib 35 mg/kg p.o. QD, Dabrafenib 100 mg/kg p.o. QD): 2354 ± 201 mm^3
